Results as given in PMC10298530, “Synthesis and Anticancer Activity of A-Ring-Modified Derivatives of Dihydrobetulin” (International Journal of Molecular Sciences, 2023).
Like-named read-outs stand apart in the source and are kept apart here.

What was measured:
human cancer cell lines = experiment: MTT assay, panel of cancer cell lines; conditions: for IC50: Homo sapiens, read-out: moderate activity (range); for cytotoxicity in the screening studies: MTT screening, Table S1
Protocol: In this study, the human embryonic kidney cell line HEK293 was used as the non-cancerous cell line.
To investigate the cytotoxic activity of the compounds under study, the MTT colorimetric assay [45] was performed. […] After 72 h, 20 μL of 5 mg/mL solution of MTT (PanEco, Moscow, Russia), in sterile phosphate-buffered saline (PBS; PanEco, Moscow, Russia), was added to each well and further incubated for 4 h. Then, the medium with the compounds was removed, and the formed formazan crystals were dissolved in 100 μL of DMSO. […] The IC50 values were determined from dose-dependent curves, using Prism 6.0 (GraphPad Software, Boston, MA, USA).

RD TE32 = experiment: MTT cell viability assay, RD TE32; assay type: cell-based, human; conditions: for IC50: Homo sapiens; for Selectivity index (SI): ratio of IC50 values healthy (HEK293) / RD TE32
Excerpt: (§1) Blokhin National Medical Research Center of Oncology (the Ministry of Health of the Russian Federation, Moscow).

MS = experiment: MTT cell viability assay, MS; assay type: cell-based, human; conditions: for IC50: Homo sapiens, MS, MTT, 72 h of treatment, read-out: IC50 Values (Mean ± SD); for Selectivity index (SI): ratio of IC50 values healthy (HEK293) / MS
Excerpt: as §1

HBL-100/Dox = experiment: MTT cell viability assay, HBL-100/Dox; assay type: cell-based, human; conditions: for IC50: Homo sapiens; for Selectivity index (SI): ratio of IC50 values healthy (HEK293) / HBL-100/Dox
Protocol: (§2) The cells were cultured in a humidified CO2 incubator (model 460-CE; Thermo Fisher Scientific, Waltham, MA, USA) at +37 °C and 5% CO2.
(§3) The percentage of the viable cells was calculated according to the following equation: cell viability (%) = 100 × (mean absorbance in the treatment group/mean absorbance in the control group). The results were expressed pictorially using Prism 6.0 (GraphPad Software, Boston, MA, USA).

HEK293 = experiment: MTT cell viability assay, HEK293; assay type: cell-based; conditions: Homo sapiens
Excerpt: as §1

HCT116 = experiment: MTT cell viability assay, HCT116; assay type: cell-based, human; conditions: for IC50: Homo sapiens, HCT-116; for Selectivity index (SI): ratio of IC50 values healthy (HEK293) / HCT116
Excerpt: as §1

A549 = experiment: MTT cell viability assay, A549; assay type: cell-based, human; conditions: for IC50: Homo sapiens; for Selectivity index (SI): ratio of IC50 values healthy (HEK293) / A549
Excerpt: as §1

MCF-7 = experiment: MTT cell viability assay, MCF-7; assay type: cell-based, human; conditions: for IC50: Homo sapiens, MCF7; for Selectivity index (SI): ratio of IC50 values healthy (HEK293) / MCF-7
Excerpt: as §1

PC-3 = experiment: MTT cell viability assay, PC-3; assay type: cell-based, human; conditions: for IC50: Homo sapiens; for Selectivity index (SI): ratio of IC50 values healthy (HEK293) / PC-3
Excerpt: as §1

HBL-100 = experiment: MTT cell viability assay, HBL-100; assay type: cell-based, human; conditions: for IC50: Homo sapiens; for Selectivity index (SI): ratio of IC50 values healthy (HEK293) / HBL-100
Protocol: as §2, §3

HEpG2 = experiment: MTT cell viability assay, HEpG2; assay type: cell-based, human; conditions: for IC50: Homo sapiens, HEpG2, MTT, 72 h of treatment, read-out: IC50 Values (Mean ± SD); for Selectivity index (SI): ratio of IC50 values healthy (HEK293) / HEpG2
Excerpt: as §1

[1] = RD TE32, MTT, 72 h of treatment, read-out: IC50 Values (Mean ± SD)
[2] = HBL-100, 72 h, read-out: IC50 Values (Mean ± SD)
[3] = HBL-100, read-out: IC50 (mean ± SD)
[4] = HEK293, MTT, 72 h of treatment, read-out: IC50 Values (Mean ± SD)
[5] = Table S1, HEK293, read-out: IC50 (mean ± SD)
[6] = HCT116, MTT, 72 h of treatment, read-out: IC50 Values (Mean ± SD)
[7] = A549, MTT, 72 h of treatment, read-out: IC50 Values (Mean ± SD)
[8] = Table S1, A549, read-out: IC50 (mean ± SD)
[9] = MCF-7, MTT, 72 h of treatment, read-out: IC50 Values (Mean ± SD)
[10] = Table S1, MCF-7, read-out: IC50 (mean ± SD)
[11] = PC-3, MTT, 72 h of treatment, read-out: IC50 Values (Mean ± SD)
[12] = Table S1, PC-3, read-out: IC50 (mean ± SD)
[13] = HBL-100, MTT, 72 h of treatment, read-out: IC50 Values (Mean ± SD)
[14] = Table S1, HBL-100, read-out: IC50 (mean ± SD)
[15] = Table S1, RD TE32, read-out: IC50 (mean ± SD)
[16] = Table S1, HCT116, read-out: IC50 (mean ± SD)

| Compound | IC50 (human cancer cell lines) | cytotoxicity in the screening studies (human cancer cell lines) | IC50 (RD TE32; [1]) | Selectivity index (SI) (RD TE32) | IC50 (MS) | Selectivity index (SI) (MS) | IC50 (HBL-100/Dox; [2]) | IC50 (HBL-100/Dox; [3]) | Selectivity index (SI) (HBL-100/Dox) | IC50 (HEK293; [4]) | IC50 (HEK293; [5]) | IC50 (HCT116; [6]) | Selectivity index (SI) (HCT116) | IC50 (A549; [7]) | Selectivity index (SI) (A549) | melting point | IC50 (MCF-7; [9]) | Selectivity index (SI) (MCF-7) | IC50 (PC-3; [11]) | IC50 (PC-3; [12]) | other results |
| --- | --- | --- | --- | --- | --- | --- | --- | --- | --- | --- | --- | --- | --- | --- | --- | --- | --- | --- | --- | --- | --- |
| CC(C)C1CC[C@]2(CO)CC[C@]3(C)C(CCC4[C@@]5(C)CC(C#N)=CC(=O)C5CC[C@]43C)C12 (some centres unmarked) [compound 14, 2-Cyano-28-hydroxy-4-oxo-3,4-seco-3,23-dinor-2,24-cyclolup-2(24)-ene] | 16 to 77.8 µM | relatively weak or moderate cytotoxicity | 49.1 ± 1.4 µM | 1.58 | 69.1 ± 1 µM | 1.13 | 54 ± 1.8 µM | 54 ± 1.82 µM | 1.44 | 77.8 ± 2.9 µM | 77.8 ± 2.9 µM | 49.9 ± 0.1 µM | 1.56 | 63.2 ± 1.4 µM | 1.23 | 121 °C | 56.7 ± 3.7 µM | 1.37 | 28.3 ± 2.3 µM | 28.3 ± 2.29 µM | IC50 (A549; [8]): 63.2 ± 1.42 µM; IC50 (MCF-7; [10]): 56.7 ± 3.72 µM; Selectivity index (SI) (PC-3): 2.75; IC50 (HBL-100; [13]): 46.9 ± 2.2 µM; IC50 (HBL-100; [14]): 46.9 ± 2.22 µM; Selectivity index (SI) (HBL-100): 1.66; IC50 (HEpG2): > 100 µM; Selectivity index (SI) (HEpG2): < 0.78 |
| COC(=O)[C@]12CCC(C(C)C)C1C1CCC3[C@@]4(C)C[C@@H](C#N)C[C@H](O)C4CC[C@@]3(C)[C@]1(C)CC2 (stereo partly drawn) [compound 19, 2-Cyano-4β-hydroxy-3,4-seco-3,23-dinor-2,24-cyclolup-28-oic acid methyl ester] | 16 to 77.8 µM | relatively weak or moderate cytotoxicity | 25.2 ± 0.1 µM | 1.37 | 22.2 ± 2 µM | 1.56 | 21.1 ± 2.2 µM | 21.1 ± 2.23 µM | 1.64 | 34.6 ± 1.1 µM | 34.6 ± 1.09 µM | 28.2 ± 2.1 µM | 1.23 | 25.9 ± 1.8 µM | 1.34 | 189.7 °C | 47.9 ± 0.3 µM | 0.72 | 17.2 ± 0.7 µM | 17.2 ± 0.69 µM | IC50 (RD TE32; [15]): 25.17 ± 0.11 µM; IC50 (HCT116; [16]): 28.2 ± 2.06 µM; IC50 (A549; [8]): 25.9 ± 1.75 µM; Selectivity index (SI) (PC-3): 2.01; IC50 (HBL-100; [13]): 16 ± 0.9 µM; IC50 (HBL-100; [14]): 16 ± 0.94 µM; Selectivity index (SI) (HBL-100): 2.16; IC50 (HEpG2): 31.8 ± 2.7 µM; Selectivity index (SI) (HEpG2): 1.09 |
| C=C1C[C@H](C#N)C[C@@]2(C)C1CC[C@]1(C)C2CCC2C3C(C(C)C)CC[C@]3(CO)CC[C@]21C (some centres unmarked) [compound 12, 2-Cyano-28-hydroxy-3,4-seco-3-nor-2,24-cyclolup-4(23)-ene] | 16 to 77.8 µM | relatively weak or moderate cytotoxicity | 98.6 ± 2.3 µM | 0.78 | > 200 µM | < 0.38 | 63 ± 1.9 µM | 63 ± 1.92 µM | 1.21 | 76.5 ± 2.5 µM | 76.5 ± 2.49 µM | 51 ± 3.7 µM | 1.50 | 44.4 ± 2.4 µM | 1.72 | 185.1 °C | 64.2 ± 3 µM | 1.19 | 55.7 ± 4.9 µM | 55.7 ± 4.89 µM | IC50 (RD TE32; [15]): 98.6 ± 2.33 µM; IC50 (HCT116; [16]): 51 ± 3.67 µM; IC50 (MCF-7; [10]): 64.2 ± 3.01 µM; Selectivity index (SI) (PC-3): 1.37; IC50 (HBL-100; [13]): 36.6 ± 1.4 µM; IC50 (HBL-100; [14]): 36.6 ± 1.44 µM; Selectivity index (SI) (HBL-100): 2.09; IC50 (HEpG2): > 100 µM; Selectivity index (SI) (HEpG2): < 0.77 |
